Literature values as cited in article PMC11647681, “Discovery of Non-Covalent Inhibitors for SARS-CoV-2 PLpro: Integrating Virtual Screening, Synthesis, and Experimental Validation” (ACS Medicinal Chemistry Letters, 2024).

Test system: SARS-CoV-2, and its variants
Design: method as in PMID 38547259
Details: cited from earlier work

Q: Which “activity against SARS-CoV-2, and its variants, in vivo” value does the source give for `CCn1ccc(-c2cc(-c3cnn(C)c3)cc([C@@H](C)NC(=O)c3cc(OCCN(C)C)ccc3C)c2)n1` [Jun12682] here?
A: The value was “confirmed”.
